Experimental data as given in patent US10081624B2, “Heterocyclic compound” (Takeda Pharmaceutical Company Limited, priority 2014, dated 2018).

Tests used:
[1] = biological target: T1, HDAC1 enzyme (Homo sapiens, UniProt Q13547); assay: HDAC1 enzyme inhibitory assay (HDAC-Glo I/II Assay kit); type: biochemical; settings: 1 μM test compound; for inhibition at 1 µM: read-out: HDAC1 inhibitory rate (%) (1 μM)
T1 construct: prepared by transducing full length HDAC1 and HDAC6 genes into Sf-9 insect cells; GST; purchased SignalChem; host or cells: Sf-9 insect cells
T1 sequence (Q13547 whole entry): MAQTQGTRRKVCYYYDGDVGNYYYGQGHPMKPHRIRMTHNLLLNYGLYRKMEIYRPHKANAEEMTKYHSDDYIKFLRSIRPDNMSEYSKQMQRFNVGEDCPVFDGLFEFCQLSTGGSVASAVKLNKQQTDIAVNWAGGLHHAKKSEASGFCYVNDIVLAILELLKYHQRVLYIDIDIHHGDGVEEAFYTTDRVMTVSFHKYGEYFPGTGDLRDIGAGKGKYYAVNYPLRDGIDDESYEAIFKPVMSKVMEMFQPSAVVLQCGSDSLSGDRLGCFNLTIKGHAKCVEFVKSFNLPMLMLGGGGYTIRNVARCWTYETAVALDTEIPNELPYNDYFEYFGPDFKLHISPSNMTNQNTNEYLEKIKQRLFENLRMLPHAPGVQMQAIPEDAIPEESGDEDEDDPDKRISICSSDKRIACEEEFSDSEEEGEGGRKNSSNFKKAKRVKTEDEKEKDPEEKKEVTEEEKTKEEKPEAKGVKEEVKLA
Procedure, shortened: (§1)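 Sf-9-expressed GST-purified full-length HDAC1/HDAC6; cpd + enzyme 60 min RT, 24 mM Tris-HCl pH 7.5, 135 mM NaCl, 0.6 mM glutathione, 0.01% Tween-20; substrate-developer 20 min RT; luminescence; no-enzyme wells = 100% inhibition.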

[2] = biological target: T2, HDAC6 enzyme (Homo sapiens, UniProt Q9UBN7); assay: HDAC6 enzyme inhibitory assay (HDAC-Glo I/II Assay kit); type: biochemical; settings: 1 μM test compound; for inhibition at 1 µM: read-out: HDAC6 inhibitory rate (%) (1 μM)
T2 construct: prepared by transducing full length HDAC1 and HDAC6 genes into Sf-9 insect cells; GST; purchased SignalChem; host or cells: Sf-9 insect cells
T2 sequence (Q9UBN7 1-1215): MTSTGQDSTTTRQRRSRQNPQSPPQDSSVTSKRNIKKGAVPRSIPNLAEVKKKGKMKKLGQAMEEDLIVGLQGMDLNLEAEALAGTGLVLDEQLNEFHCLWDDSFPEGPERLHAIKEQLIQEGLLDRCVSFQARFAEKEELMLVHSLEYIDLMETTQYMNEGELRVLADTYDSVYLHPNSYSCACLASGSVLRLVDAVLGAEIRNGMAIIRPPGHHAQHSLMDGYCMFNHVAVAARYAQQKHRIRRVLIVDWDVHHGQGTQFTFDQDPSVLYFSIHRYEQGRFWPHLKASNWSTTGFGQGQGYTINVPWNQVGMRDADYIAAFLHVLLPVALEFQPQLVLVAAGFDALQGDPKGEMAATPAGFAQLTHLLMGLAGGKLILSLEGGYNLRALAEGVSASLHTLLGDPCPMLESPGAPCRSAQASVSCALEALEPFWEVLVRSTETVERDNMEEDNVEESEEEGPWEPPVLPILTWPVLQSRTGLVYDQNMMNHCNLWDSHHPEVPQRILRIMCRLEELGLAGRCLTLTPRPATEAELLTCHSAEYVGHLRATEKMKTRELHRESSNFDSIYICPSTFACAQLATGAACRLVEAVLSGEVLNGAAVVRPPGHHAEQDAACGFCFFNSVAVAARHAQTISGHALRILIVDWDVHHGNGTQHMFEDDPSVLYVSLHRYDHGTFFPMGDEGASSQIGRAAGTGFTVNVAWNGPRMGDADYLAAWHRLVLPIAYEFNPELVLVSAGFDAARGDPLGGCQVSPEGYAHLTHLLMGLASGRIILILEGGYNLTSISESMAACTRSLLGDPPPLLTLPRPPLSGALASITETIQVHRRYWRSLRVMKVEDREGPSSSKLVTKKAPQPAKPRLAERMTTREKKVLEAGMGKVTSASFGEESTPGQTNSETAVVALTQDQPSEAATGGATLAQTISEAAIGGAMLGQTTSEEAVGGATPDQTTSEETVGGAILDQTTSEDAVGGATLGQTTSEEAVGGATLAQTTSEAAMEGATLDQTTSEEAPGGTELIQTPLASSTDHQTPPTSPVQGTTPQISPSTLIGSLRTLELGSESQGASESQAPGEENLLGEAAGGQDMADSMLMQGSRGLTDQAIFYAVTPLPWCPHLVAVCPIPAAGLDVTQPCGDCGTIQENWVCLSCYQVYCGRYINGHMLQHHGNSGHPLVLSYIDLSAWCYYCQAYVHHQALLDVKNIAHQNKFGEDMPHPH
Procedure, shortened: as §1

SMILES	inhibition at 1 µM [1] [%]	inhibition at 1 µM [2] [%]	HDAC1 inhibitory rate (%) (1 μM) ([1]; 1 µM)	HDAC1 inhibitory rate (%) (1 μM) [1]	HDAC6 inhibitory rate (%) (1 μM) [2]
O=C(NCC1COCCN1C(=O)c1ccnc(C2CC2)c1)c1ccc(-c2noc(C(F)(F)F)n2)cc1 (centres unmarked) [Example 34, N-((4-(2-cyclopropylisonicotinoyl)morpholin-3-yl)methyl)-4-(5-(trifluoromethyl)-1,2,4-oxadiazol-3-yl)benzamide]	18	98			
O=C(NCC1COCCN1C(=O)c1cccnc1)c1ccc(-c2noc(C(F)(F)F)n2)cc1 (centres unmarked) [Example 13, N-((4-(pyridin-3-ylcarbonyl)morpholin-3-yl)methyl)-4-(5-(trifluoromethyl)-1,2,4-oxadiazol-3-yl)benzamide]	13	97			
O=C(NC[C@H]1COCCN1C(=O)C1CCCCC1)c1ccc(-c2noc(C(F)(F)F)n2)cc1 [Example 80, N-(((3S)-4-(cyclohexylcarbonyl)morpholin-3-yl)methyl)-4-(5-(trifluoromethyl)-1,2,4-oxadiazol-3-yl)benzamide]	15	98			
O=C(NC[C@@H]1COCCN1C(=O)c1ccno1)c1ccc(-c2noc(C(F)(F)F)n2)cc1 [Example 133, N-(((3R)-4-(1,2-oxazol-5-ylcarbonyl)morpholin-3-yl)methyl)-4-(5-(trifluoromethyl)-1,2,4-oxadiazol-3-yl)benzamide]	6	96			
O=C(NC[C@H]1COCCN1C(=O)c1ccccc1)c1ccc(-c2noc(C(F)(F)F)n2)cc1 [Example 36, N-(((3S)-4-benzoylmorpholin-3-yl)methyl)-4-(5-(trifluoromethyl)-1,2,4-oxadiazol-3-yl)benzamide]				21	105
O=C(NCC1COCCN1C(=O)C1CCNC1=O)c1ccc(-c2noc(C(F)(F)F)n2)cc1 (stereo in doubt) [Example 105, N-(((3S)-4-((2-oxopyrrolidin-3-yl)carbonyl)morpholin-3-yl)methyl)-4-(5-(trifluoromethyl)-1,2,4-oxadiazol-3-yl)benzamide]			8		76
Cn1nc(C(F)(F)F)cc1C(=O)N1CCOC[C@@H]1CNC(=O)c1ccc(-c2noc(C(F)(F)F)n2)cc1 [Example 64, N-(((3S)-4-((1-methyl-3-(trifluoromethyl)-1H-pyrazol-5-yl)carbonyl)morpholin-3-yl)methyl)-4-(5-(trifluoromethyl)-1,2,4-oxadiazol-3-yl)benzamide]	17	93			
Cc1nnsc1C(=O)N1CCOC[C@@H]1CNC(=O)c1ccc(-c2noc(C(F)(F)F)n2)cc1 [Example 68, N-(((3S)-4-((4-methyl-1,2,3-thiadiazol-5-yl)carbonyl)morpholin-3-yl)methyl)-4-(5-(trifluoromethyl)-1,2,4-oxadiazol-3-yl)benzamide]	32	101			
Cc1cc(C(=O)N2CCOC[C@@H]2CNC(=O)c2ccc(-c3noc(C(F)(F)F)n3)cc2)ccn1 [Example 49, N-(((3S)-4-(2-methylisonicotinoyl)morpholin-3-yl)methyl)-4-(5-(trifluoromethyl)-1,2,4-oxadiazol-3-yl)benzamide]	13				98

Other lines, results leading:

inhibition at 1 µM [1] [%]	inhibition at 1 µM [2] [%]	HDAC1 inhibitory rate (%) (1 μM) ([1]; 1 µM)	HDAC1 inhibitory rate (%) (1 μM) [1]	HDAC6 inhibitory rate (%) (1 μM) [2]	SMILES
	98	3			O=C(NC[C@H]1COCCN1C(=O)N1CCOCC1CO)c1ccc(-c2noc(C(F)(F)F)n2)cc1 (stereo partly drawn) [Example 310, N-(((3S)-4-((3-(hydroxymethyl)morpholin-4-yl)carbonyl)morpholin-3-yl)methyl)-4-(5-(trifluoromethyl)-1,2,4-oxadiazol-3-yl)benzamide]
5	83				O=C(NC[C@H]1COCCN1C(=O)N1CCC2(CC1)COC2)c1ccc(-c2noc(C(F)(F)F)n2)cc1 [Example 282, N-(((3S)-4-(2-oxa-7-azaspiro[3.5]non-7-ylcarbonyl)morpholin-3-yl)methyl)-4-(5-(trifluoromethyl)-1,2,4-oxadiazol-3-yl)benzamide]
33	98				O=C(NCC1COCCN1C(=O)C1CCCCC1)c1ccc(-c2noc(C(F)(F)F)n2)s1 (centres unmarked) [Example 254, N-((4-(cyclohexylcarbonyl)morpholin-3-yl)methyl)-5-(5-(trifluoromethyl)-1,2,4-oxadiazol-3-yl)thiophene-2-carboxamide]
27	99				O=C(NCC1COCCN1C(=O)c1ccccc1)c1ccc(-c2noc(C(F)(F)F)n2)cc1F (centres unmarked) [Example 177, N-((4-benzoylmorpholin-3-yl)methyl)-2-fluoro-4-(5-(trifluoromethyl)-1,2,4-oxadiazol-3-yl)benzamide]
3	83				N#C[C@@H]1CCCN1C(=O)N1CCOC[C@@H]1CNC(=O)c1ccc(-c2noc(C(F)(F)F)n2)cc1 [Example 285, N-(((3S)-4-(((2S)-2-cyanopyrrolidin-1-yl)carbonyl)morpholin-3-yl)methyl)-4-(5-(trifluoromethyl)-1,2,4-oxadiazol-3-yl)benzamide]
59	99				O=C(NC[C@H]1COCCN1C(=O)C1C2CC3CC(C2)CC1C3)c1ccc(-c2noc(C(F)(F)F)n2)cn1 (some centres unmarked) [Example 205, N-((4-(adamantan-2-ylcarbonyl)morpholin-3-yl)methy)-5-(5-(trifluoromethyl)-1,2,4-oxadiazol-3-yl)pyridine-2-carboxamide]
42	97				O=C(NCC1COCCN1C(=O)c1cc(Cl)cc(Cl)c1)c1ccc(-c2noc(C(F)(F)F)n2)cn1 (centres unmarked) [Example 182, N-((4-(3,5-dichlorobenzoyl)morpholin-3-yl)methyl)-5-(5-(trifluoromethyl)-1,2,4-oxadiazol-3-yl)pyridine-2-carboxamide]
10	98				O=C(NC[C@H]1COCCN1C(=O)c1cccc(OCCO)c1)c1ccc(-c2noc(C(F)(F)F)n2)cc1 [Example 302, N-(((3S)-4-(3-(2-hydroxyethoxy)benzoyl)morpholin-3-yl)methyl)-4-(5-(trifluoromethyl)-1,2,4-oxadiazol-3-yl)benzamide]
1	95				N#C[C@H]1CCCN1C(=O)N1CCOC[C@@H]1CNC(=O)c1ccc(-c2noc(C(F)(F)F)n2)cc1 [Example 284, N-(((3S)-4-(((2R)-2-cyanopyrrolidin-1-yl)carbonyl)morpholin-3-yl)methyl)-4-(5-(trifluoromethyl)-1,2,4-oxadiazol-3-yl)benzamide]
7	89				O=C(NCC1COCCN1C(=O)c1cccc(-c2ccccc2)c1)c1ccc(-c2noc(C(F)(F)F)n2)s1 (centres unmarked) [Example 222, N-((4-(biphenyl-3-ylcarbonyl)morpholin-3-yl)methyl)-5-(5-(trifluoromethyl)-1,2,4-oxadiazol-3-yl)thiophene-2-carboxamide]
3	87				COC[C@@H]1CCCN1C(=O)N1CCOC[C@@H]1CNC(=O)c1ccc(-c2noc(C(F)(F)F)n2)cc1 [Example 273, N-(((3S)-4-(((2S)-2-(methoxymethyl)pyrrolidin-1-yl)carbonyl)morpholin-3-yl)methyl)-4-(5-(trifluoromethyl)-1,2,4-oxadiazol-3-yl)benzamide]
5	85				O=C(NC[C@H]1COCCN1C(=O)N1CC[C@@H](O)C1)c1ccc(-c2noc(C(F)(F)F)n2)cc1 [Example 275, N-(((3S)-4-(((3R)-3-hydroxypyrrolidin-1-yl)carbonyl)morpholin-3-yl)methyl)-4-(5-(trifluoromethyl)-1,2,4-oxadiazol-3-yl)benzamide]
3	92				O=C(NC[C@@H]1COCCN1C(=O)C1CCOCC1)c1ccc(-c2noc(C(F)(F)F)n2)cc1 [Example 153, N-(((3R)-4-(tetrahydro-2H-pyran-4-ylcarbonyl)morpholin-3-yl)methyl)-4-(5-(trifluoromethyl)-1,2,4-oxadiazol-3-yl)benzamide]
